In patent US10414745B2, “Phenol derivatives to treat cancer” (FUNDACIÓN MEDINA. CENTRO DE EXCELENCIA EN INVESTIGACIÓN DE …, priority 2015, dated 2019):
Read-outs that look alike come from different tables or passages of the source.

Columns and labels:
[1] = tested on: Cancer Stem Cells MiaPaca_2; assay: MTT assay, synergism with Gemcitabine, Cancer Stem Cells MiaPaca_2; assay type: cell-based; settings: Homo sapiens, MIA PaCa-2; Cancer Stem Cells MiaPaca_2, Gemcitabine alone; read-out: IC50, dose-response curve of Gemcitabine
Description: In order to study if treatment with MDN-0090 could be used in synergism with the most common pancreatic chemotherapic drug (Gemcitabine), MTT assay was performed using tumor cell lines (MiaPaca_2 and BxPC3) and cancer stem cells (MiaPaca_2 and BxPC3). In this way different Gemcitabine concentrations (0.00025-5 μM) were used with MDN-0090 dose response curves (0.39-50 μM) and vice versa. With this assay, we observed that the activity of both compounds (Gemcitabine and MDN-0090) increased when were administered together. (Tables 14-19)

[2] = tested on: MiaPaca_2; assay: MTT assay in MiaPaca_2 tumoral pancreatic cell line; assay type: cell-based; settings: Homo sapiens, MIA PaCa-2; 72 hours of treatment; read-out: ED50 MiaPaca_2 (MTT assay)
Description: (§1) The activity of the compounds was detected using tumoral pancreatic cell lines (MiaPaca-2 and BxPC3). For this purpose MTT test was used. Cells were seeded at […], and treated with the compound during 72 hours.

[3] = tested on: BxPC3; assay: MTT assay in BxPC3 tumoral pancreatic cell line; assay type: cell-based; settings: Homo sapiens, BXPC-3; 72 hours of treatment; read-out: ED50 BxPC3 (MTT assay)
Description: as §1

[4] = tested on: MiaPaca 2 cell line; assay: ApoTox-Glo Triplex Assay (viability, citotoxicity, apoptosis); assay type: cell-based; settings: Homo sapiens, MIA PaCa-2, MiaPaca_2, 72 hours of treatment
Description: The MiaPaca 2 cell line was used for further evaluation of the MDN-0089, MDN-0090, MDN-0092 and MDN-0093 activity. The ApoTox-Glo™ Triplex Assay was used to evaluate three parameters (viability, citotoxicity and apoptosis).
Viability: The live-cell protease activity is restricted to intact viable cells and is measured using a fluorogenic, cell-permeant, peptide substrate (glycylphenylalanyl-aminofluorocoumarin; GF-AFC). The substrate enters intact cells where it is cleaved by the live-cell protease activity to generate a fluorescent signal proportional to the number of living cells
Cytotoxicity: Fluorogenic cell-impermeant peptide substrate (bis-alanylalanyl-phenylalanyl-rhodamine 110; bis-AAF-R110) is used to measure dead-cell protease activity, which is released from cells that have lost membrane integrity. Because bis-AAF-R110 is not cell-permeant, essentially no signal from this substrate is generated by intact, viable cells
Apoptosis: The assay uses the Caspase-Glo® Assay Technology by providing a luminogenic caspase-3/7 substrate, which contains the tetrapeptide sequence DEVD, in a reagent optimized for caspase activity, luciferase activity and cell lysis.

[5] = tested on: MiaPaca_2 cell line; assay: CFSE assay (cell cycle inhibition, High content screening); assay type: cell-based; settings: Homo sapiens, MIA PaCa-2; MiaPaca_2, 72 hours of treatment; read-out: ED50 CFSE assay
Description: To evaluate the potency of the MDN-0089, MDN-0090, MDN-0092 and MDN-0093, dye CFSE and High content screening (HCS) equipment were used. MiaPaca_2 cell line was used. Cells were seeded in 96 wells plates at 10.000 cells/well. Medium was removed and compounds and standards were added in fresh medium at different concentrations, (1 μL of compound/200 μL fresh medium). The DMSO concentration was 0.5% in all wells. After 72 hours of incubation (37° C., 5% CO2), plates were read in HCS equipment.

[6] = tested on: pERK1/2; assay: Western blot pERK1_2 (Ras/Raf/MEK/ERK pathway inhibition); assay type: cell-based; settings: 24 hours of treatment, untreated 0.38
Excerpt: Western blot technique was used, using an Odissey Licor equipment to read the membranes. pERK1_2 antibody was used as first antibody and as second antibody we used anti-mouse antibodies. Then, the membranes were quantified using β-actin.

[7] = tested on: HepG2; assay: Cytotoxicity on HepG2; assay type: cell-based; settings: for activity effect on HepG2 (in words): 72 hours; for IC50: Homo sapiens, HepG2, 72 hours, read-out: IC50 Cytoxicity
[8] = tested on: p-ERK; assay: AlphaScreen Surefire p-ERK kit assay; assay type: cell-based; settings: 24 hours of treatment, read-out: Inflexion point (AlphaScreen)
Description: This effect was checked for MDN-0090 with a p-ERK kit (Perkin Elmer). Cells were seeded into 96 wells/plate at 75000 cells/well. 24 hours later the medium was removed and the compound was added with fresh medium. After 24 hours of treatment, cells were lysed. 15 μL of the lysate and 15 μL of reagents were added. After 2 hours of incubation, plate was read using an EnVision equipment to read AlphaScreen assay (AlphaScreen signal (Luminiscent/fluorescent). See table 11 and FIG. 2.

[9] = tested on: CSCs MiaPaca_2; assay: MTT test on pancreatic Cancer Stem Cells MiaPaca_2; assay type: cell-based; settings: Homo sapiens, MIA PaCa-2, read-out: ED50 CSCs MiaPaca_2
Excerpt: (§2) Two established cell lines derived from two different pancreatic adenocarcinomas: BxPC3 (reference ATCC® CRL-1687), mutated for CDKN2A, MAP2K4, SMAD4 and TP53; and MIA-PaCa-2 (reference ATCC® CRL-1420), mutated for k-RAS were used. These cells lines were maintained with Dulbecco's-Modified Eagle's Medium (DMEM) (Sigma-Aldrich, St. Louis, Mo., USA) supplemented with 10% fetal bovine serum (FBS) (Gibco, Carlsbad, Calif., USA) and 1% penicillin/streptomycin (P/S) (Sigma-Aldrich) in a 75 cm^2 culture flask (B D Falcon, Franklin Lakes, N.J.) unless otherwise indicated. All cells were grown at 37° C. with 5% CO2 in a humidified incubator (Steri-Cult CO2 Incubator, Thermo Electron Corporation, Waltham, Mass., USA). Media were changed every 48-72 hours and cultured cells with a maximum of 80% confluence were passed.
(§3) For the isolation of CSCs subpopulation we used the methodology described in WO 2016/020572.
(§4) The activity of the MDN-0090 was detected using pancreatic Cancer Stem Cell lines (MiaPaca-2 and BxPC3). For this purpose MTT test was used.

[10] = tested on: CSCs BxPC3; assay: MTT test on pancreatic Cancer Stem Cells BxPC3; assay type: cell-based; settings: Homo sapiens, BXPC-3, read-out: ED50 CSCs BxPC3
Excerpt: as §2, §3, §4

[11] = tested on: BxPC3 tumor cell line xenografts; assay: Antitumor activity in heterotopic xenografts, BxPC3; assay type: in vivo; settings: BxPC3 xenograft, NSG mice, 20 mg/kg ip three times a week for 50 days
Description: (§5) To evaluate the effect of MDN-0090 on tumor growth heterotopic xenografts were used for both BxPC3 and MIAPaca-2 tumor cell lines. Tumor formation was induced by subcutaneous injection of 5×10^6 cells/mouse in female NOD scid mice gamma (NOD.Cg-Prkdcscid II2rgtm1Wjl/SzJ, NSG) of eight weeks old. Animals (n=40, 10 per group) were housed and maintained at 20° C. to 24° C., 50% humidity a light-dark cycle of 14 to 10 h with food and water ad libitum. Tumors were grown to an average volume of 100 mm^3, after which they were randomly assigned as control groups (saline) and treated with MDN-0090 (20 mg/kg, dissolved in saline) injected ip three times a week for 50 days. Tumor growth was assessed twice weekly using a digital caliper and the tumor volume was calculated by the formula V=(length)^2×width×π/6.

[12] = tested on: MIAPaca-2 tumor cell line xenografts; assay: Antitumor activity in heterotopic xenografts, MIAPaca-2; assay type: in vivo; settings: MIAPaca-2 xenograft, NSG mice, 20 mg/kg ip three times a week for 50 days
Description: as §5

[13] = tested on: BxPC3 CSCs xenografts; assay: Antitumor activity against CSCs induced tumors; assay type: in vivo; settings: BxPC3 CSCs xenograft, NSG mice, 10 mg/kg or 20 mg/kg ip three times a week for 52 days
Description: We evaluated the effect of MDN-0090 on CSCs induced tumors. We isolated and characterized the pancreatic CSCs from BxPC3 cell line using the methodology described previously (WO 2016/020572).
In vivo experiment was performed in male and female NOD scid gamma mice (NSG, NOD.Cg-Prkdcscid II2rgtm1Wjl/SzJ). All animals (n=10 per group) were maintained in a microventilated cage system with a 12-h light/dark cycle, and were manipulated in a laminar air-flow cabinet to keep on the specific pathogen-free conditions.
For the induction of xenografts tumors, mice were anesthetized by inhalation of isofluorane, inoculated with 5×10^4 BxPC3 CSCs by subcutaneously injections into the flank regions. Tumors were grown to an average volume of 100 mm^3, after which they were randomly assigned as control groups (saline) and treatment A with MDN-0090 (10 mg/kg, dissolved in saline) and treatment B (20 mg/kg, dissolved in saline) ip three times a week for 52 days. Tumor growth was assessed twice weekly using a digital caliper and the tumor volume was calculated by the formula V=(length)^2×width×π/6.

[14] = tested on: BxPC3 tumor cell line; assay: In vivo tumorigenicity assay, BxPC3; settings: BxPC3 cells treated with MDN-0090 at IC50 for 24 hours before inoculation into NSG mice
Description: (§6) To evaluate the effect of MDN-0090 on the tumorigenicity ability of CSC-like cells heterotopic xenografts using both BxPC3 and MIAPaca-2 tumor cell lines were established. Firstly, we treated cells with MDN-0090 at IC50 for 24 hours and after that cells were inoculated into the animals. Pancreatic cancer non-treated cells were used as control.
(§7) Tumor formation was induced by subcutaneous injection of 1.5×10^4 in vitro treated or non-treated cells/mouse in NOD scid mice gamma (NOD.Cg-Prkdcscid II2rgtm1Wjl/SzJ, NSG). Animals (n=20, 10 per group) were housed and maintained at 20° C. to 24° C., 50% humidity a light-dark cycle of 14 to 10 h with food and water ad libitum. We observed the tumor growth every two days. Tumor growth was assessed using a digital caliper and the tumor volume was calculated by the formula V=(length)^2×width×π/6.

[15] = tested on: MIAPaca-2 tumor cell line; assay: In vivo tumorigenicity assay, MIAPaca-2; settings: MIAPaca-2 cells treated with MDN-0090 at IC50 for 24 hours before inoculation into NSG mice
Description: as §6, §7

[16] = read-out: ED50 Apoptosis (Caspase3_7)

SMILES	EC50 [2] [µM]	EC50 [3] [µM]	EC50 [4, 16] [µM]	EC50 ([4]; read-out: ED50 Citotoxicity) [µM]	EC50 ([4]; read-out: ED50 Viability) [µM]	EC50 [5] [µM]	pERK1_2 (Fluorescence pERK1/2/fluorescence β-actine) [6]	activity effect on HepG2 (in words) [7]	IC50 [7] [µM]	also measured
Nc1ccn([C@@H]2O[C@H](CO)[C@@H](O)C2(F)F)c(=O)n1 [Gemcitabine]										IC50 [1]: 1.9 µM
Cc1cc(O)c(C(=O)c2c(C=O)c(O)cc3c2C(=O)CC(C)(C)O3)c(O)c1 [MDN-0089]	20.3	7.63	29.7	> 50	> 50	3.33	0.22	medium activity effect	13.6	
CC(C)=CCc1c(O)cc(O)c(C=O)c1C(=O)c1c(O)cc(C)cc1O [MDN-0090, 2,3′,5′,6-tetrahydroxy-2′-formyl-6′-(3-methyl-2-butenyl)-4-methyl-benzophenone]	8.84	4.67	24.9	> 50	17.3	5.27	0.18	medium activity effect	19.7	IC50 ([8]; 24 h): 9.02 µM; IC50 [8]: 6.12 µM; EC50 ([9]; 12 hours): 20.8 µM; EC50 ([9]; 24 hours): 14 µM; EC50 ([9]; 48 hours): 19.6 µM; EC50 ([9]; 72 hours): 2.18 µM; EC50 ([10]; 12 hours): 14.3 µM; EC50 ([10]; 24 hours): 17 µM; EC50 ([10]; 48 hours): 14 µM; EC50 ([10]; 72 hours): 10.3 µM; tumor size (tumor volume) [11]: reduces the size of tumors; tumor size (tumor volume) [12]: reduces the size of tumors; tumor size (tumor volume) [13]: decreased the size tumor; tumor formation [14]: reduces tumor formation; tumor formation [15]: reduces tumor formation
Cc1cc(O)c(C(=O)c2c(C=O)c(O)cc3c2C=CC(C)(C)O3)c(O)c1 [MDN-0091]	> 50	> 50								
COc1cc(O)c(C=O)c(C(=O)c2c(O)cc(C)cc2O)c1CC=C(C)C [MDN-0092]	7.18	9.14	> 50	> 50	> 50	22.9	0.29	medium activity effect	20.4	
COc1cc(O)c(C=O)c(C(=O)c2c(O)cc(C)c(Cl)c2O)c1CC=C(C)C [MDN-0093]	6.47	8.7	18.4	> 50	14.5	< 3.15	0.12	high activity effect	8.9	
COc1cc(O)c2oc3cc(C)cc(O)c3c(=O)c2c1CC=C(C)C [MDN-0094]	> 50	> 50								
